Experiments:
TNFα = test: serum TNFα ELISA 24 h after zymosan injection; format: in vivo, mouse; settings: 25 mg/kg, serum 24 h after zymosan
Protocol: Blood was collected 24 h after zymosan injection, and the sera were assayed for TNFα using a mouse TNFα ELISA kit (R&D Systems, Minneapolis, MN, USA), according to the manufacturer's instructions.

[1] = system: medial meniscal tear (MMT) post-traumatic OA; test: rat medial meniscal tear (MMT) model, body weight and dynamic weight bearing; format: in vivo
Protocol: Initially, the required amount of HU308 dissolved in ethanol followed by addition of […] with vigorous mechanical agitation to form viscous micelle solution. Finally, the micelle solution was diluted in ice cold saline for injection or culture assays. Vehicle solution consisted of ethanol, cremophor and saline at 1:1:18 ratio. For intra-articular (IA) dosing 50 μL was injected into the tibiofemoral joint, at two doses; 8 and 24 μg/mL. Vehicle control contained 1:1:18 ethanol/Cremophor/saline, while positive control was of IA administered 60 μg/mL FGF-18 (R&D Systems, catalogue No. 8988-F18-050, lot No. BVE0521071) for IA dosing at 50 μL/knee.
(§1) The rat OA model employed was surgically-induced medial meniscal tear (MMT), wherein rats were anesthetized with Isoflurane (VetOne, catalogue No. 502017), and the right knee area was prepared for surgery. A skin incision was made over the medial aspect of the knee, and the medial collateral ligament was exposed by blunt dissection and then transected. The medial meniscus was cut through the full thickness to simulate a complete tear. Skin and subcutis were closed with 4-0 Coated Vicryl (polyglactin 910) Violet Braided Suture (Ethicon, catalogue No. J399H), and slight hand pressure was applied to the wound for approximately 3 minutes for hemostasis. Subcutaneous (SC) dose of buprenorphine (0.05 mg/kg) administered after the animal awakened post-surgery. Rats were weighed daily on study days −1 through 7 and again on days 14, 21, and 28 (prior to necropsy). […] The animals were euthanized for necropsy 28 days post-surgery, following Isoflurane anesthesia, and bled to exsanguination followed by bilateral pneumothorax.

[2] = system: medial meniscal tear (MMT) post-traumatic OA; test: rat MMT model, histopathology of medial tibial joint 28 days post MMT; format: in vivo; settings: for osteophyte measurements and scores: vs vehicle
Protocol: as §1
Right knees were collected from all animals and trimmed of muscle and patellae. The trimmed joints were placed in 10% neutral buffered formalin (NBF) for histologic processing and evaluation. Samples were fixed for 3 days in 4% paraformaldehyde and decalcified for 21 days in 10% EDTA, pH=7.5. Then following dehydration in a graded series of ethanol washes, joints were embedded in paraffin and sectioned to 7 μm slices, following trimming off 1 mm until the tibiofemoral compartments are fully observed. Sections were obtained from each knee and stained with toluidine blue (0.04% in 0.2 M acetate buffer, Ph=4.0), based on a modified version of the methods used in Schmitz, et al. (2010), (11). Histopathology was carried out using an ocular micrometer. The following structural histological characterization was carried out:
Regional differences across the tibial plateau were taken into consideration by dividing each section into three zones: (1) outside, (2) middle, and (3) inside. In the surgical OA model, the outside (zone-1) and middle (zone-2) thirds are most severely affected, and milder changes are present on the inside third (zone 3). When zones were scored individually, scores were assigned based on percent area of the zone affected. General cartilage degeneration including chondrocyte death/loss, proteoglycan (PG) loss, and collagen loss or fibrillation. Zones were scored individually (0-5; 5 representing sever damage; SD3), and a sum of all three zones was calculated (termed “Total Joint scores”).
The zone related cartilage depth is calculated from the projected articular surface tot the tidemark. Reduced ratios embody less detected cartilage width vs projected cartilage with area, per zone.
Osteophyte thickness (tidemark to furthest point extending toward synovium) was measured and scored according to a range from 0-5, as in SD4.
Damage to the calcified cartilage layer and subchondral bone was scored using the criteria in SD5. Generally damage was considered as invagination of deep zone cartilage into the subchondral bone layer.
[…] Descriptions of other changes (typically fibrosis, or acute inflammation/neutrophil infiltration extending into the lateral compartment usually associated with IA treatments) were also provided, if present.

## CCCCCCC(C)(C)c1cc(OC)c([C@]2(O)C3(C)CCC(C3)C2(C)C)c(OC)c1 (some centres unmarked) [Compound 1d, 2-(2,6′-dimethoxy-4′-(2″-methyloctan-2″-yl)phenyl)-1,3,3-trimethyl-bicyclo[2.2.1]heptan-2-ol]
TNFα
  levels of TNF-α: reduced significantly
[1]; 1D high dose 24 μg/mL IA
  dynamic weight bearing, left to right load bearing: statistically insignificant levels vs sham and vehicle
[1]; 1D high dose 24 μg/mL IA, vs Vehicle and FGF18 groups
  change in rat weight from 4 days to 28 days post MMT: slight but significant increase
[1]; 1D low dose 8 μg/mL IA
  dynamic weight bearing, left to right load bearing: increased left to right lad bearing vs sham
[2]; 1D high dose 24 μg/mL IA
  mean zonal depth ratios: reduced depth ratios
  zone 3 cartilage degeneration score: less degeneration scores which were statistically significant
  osteophyte measurements and scores: didn't display any differences
[2]; 1D high dose 24 μg/mL IA, vs 1D low dose and Vehicle
  total zonal cartilage degeneration scores: significantly reduced degenerative scores
[2]; 1D low dose 8 μg/mL IA
  synovitis scores: higher
  zone 3 cartilage degeneration score: less degeneration scores which were statistically significant
  osteophyte measurements and scores: didn't display any differences

— US20250002435A1, “ARYLATED FENCHONE DERIVATIVES, COMPOSITIONS COMPRISING THEM, PROCESSES FOR THEIR PREPARATION AND USES THEREOF” (priority 2021, published 2025)
